# US11419859B2, “Combination therapy for treating malignancies” (Servier Pharmaceuticals LLC, priority 2015, dated 2022)
# Test: blood bilirubin in subjects with a UGT1A1 mutation receiving COMPOUND 1
# Format: in vivo, human
# From the text: All toxicity≥Grade 3 not due to underlying AML or complications of the disease or myelosuppressive treatment, with the exception of ≥Grade 3 blood bilirubin increases in subjects with a UGT1A1 mutation receiving COMPOUND 1.
structure (smiles),measurement,value
"CC(C)(O)CNc1nc(Nc2ccnc(C(F)(F)F)c2)nc(-c2cccc(C(F)(F)F)n2)n1 [COMPOUND 1, 2-methyl-[(4-[6-(trifluoromethyl)pyridin-2-yl]-6-{[2-(trifluoromethyl)pyridin-4-yl]amino}-1,3,5-triazin-2-yl)amino]propan-2-ol]",blood bilirubin,isolated blood bilirubin increases have been seen
